Assay results published in patent US20230087609A1, “USE OF A SOLUBLE GUANYLATE CYCLASE (sGC) STIMULATOR OR OF A COMBINATION OF A sGC STIMULATOR AND AN sGC ACTIVATOR FOR CONDITIONS WHEREIN THE HEME GROUP OF sGC IS OXIDIZED OR WHEREIN sGC IS DEFICIENT IN HEME” (Universiteit Maastricht, priority 2020, published 2023).
“Also recorded” adds a separate entry of the source.

Tests used:
[1] = molecular target: T1, human sGCa1 and mutant sGCβ1H105F (apo-sGC) in Sf9 cells (Homo sapiens, UniProt Q02153, H105F); assay: cGMP accumulation in intact Sf9 cells expressing apo-sGC; type: cell-based; conditions: for cGMP formation, sGC stimulator combined with NO donor: 30 micromole/L Bay 41-2272 + 10 micromole/L DETA-NONOate (FIG. 12A, B); for cGMP formation, sGC stimulator only: 30 micromole/L Bay 41-2272 alone (FIG. 12A)
T1 construct: His tag; expressed in transfected cells; host or cells: Sf9 cells co-infected with baculoviruses
T1 sequence (Q02153 1-619 H105F): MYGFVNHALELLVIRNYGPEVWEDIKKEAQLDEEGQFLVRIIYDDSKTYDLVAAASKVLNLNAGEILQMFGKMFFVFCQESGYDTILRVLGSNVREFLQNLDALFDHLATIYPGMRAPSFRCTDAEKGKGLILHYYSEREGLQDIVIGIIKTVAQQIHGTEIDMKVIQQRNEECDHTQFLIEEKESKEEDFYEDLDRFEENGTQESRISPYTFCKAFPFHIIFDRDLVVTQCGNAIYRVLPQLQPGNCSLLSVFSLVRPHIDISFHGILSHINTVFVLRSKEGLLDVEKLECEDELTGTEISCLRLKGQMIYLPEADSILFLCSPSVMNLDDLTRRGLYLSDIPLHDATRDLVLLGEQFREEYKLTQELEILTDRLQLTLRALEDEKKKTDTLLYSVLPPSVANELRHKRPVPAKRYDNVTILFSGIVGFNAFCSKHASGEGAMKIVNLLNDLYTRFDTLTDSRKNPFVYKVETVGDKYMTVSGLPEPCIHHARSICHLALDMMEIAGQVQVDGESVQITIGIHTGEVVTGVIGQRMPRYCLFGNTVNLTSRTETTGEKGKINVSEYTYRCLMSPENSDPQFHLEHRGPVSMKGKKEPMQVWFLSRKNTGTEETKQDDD
T1 sequence (Q02108 1-690 partner): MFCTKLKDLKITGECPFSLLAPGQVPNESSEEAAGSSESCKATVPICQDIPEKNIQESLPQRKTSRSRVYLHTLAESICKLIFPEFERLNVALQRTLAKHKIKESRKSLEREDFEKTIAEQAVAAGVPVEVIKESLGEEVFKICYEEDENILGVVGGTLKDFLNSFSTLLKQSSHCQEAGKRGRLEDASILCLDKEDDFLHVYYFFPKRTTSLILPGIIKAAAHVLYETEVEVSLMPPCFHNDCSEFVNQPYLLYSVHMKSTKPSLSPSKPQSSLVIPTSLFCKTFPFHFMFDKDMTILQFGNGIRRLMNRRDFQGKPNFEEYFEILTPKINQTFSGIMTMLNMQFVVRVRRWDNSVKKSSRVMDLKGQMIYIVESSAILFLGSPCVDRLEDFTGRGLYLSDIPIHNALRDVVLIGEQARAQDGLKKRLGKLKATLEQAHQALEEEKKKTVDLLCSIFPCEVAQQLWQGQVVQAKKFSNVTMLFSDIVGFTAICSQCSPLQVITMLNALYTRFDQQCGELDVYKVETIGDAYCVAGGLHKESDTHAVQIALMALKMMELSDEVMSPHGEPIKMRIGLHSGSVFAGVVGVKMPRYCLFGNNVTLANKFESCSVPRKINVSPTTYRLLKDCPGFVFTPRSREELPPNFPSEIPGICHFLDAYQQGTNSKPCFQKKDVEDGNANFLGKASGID
Procedure: Sf9 cells were co-infected with baculoviruses expressing human sGCa1 and mutant sGCβ1H105F. Forty-eight hours post-infection, the cells were treated with vehicle, NO donor, sGC stimulator, sGC activator or combination in 2 ml final volume of 10^6 cells per ml then the cells were incubated for 10 min at 27° C. The reaction was terminated by the addition of 0.1M of HCl, and cGMP was extracted on ice for 20 min. Cells were then sonicated to ensure complete lysis. The extract was then centrifuged and used for cGMP determination by an ELISA (Enzo Life Sciences).
Forty-eight hours post-infection, the cells were treated with vehicle, NO donor, sGC stimulator, sGC activator or combination in 2 ml final volume of 10^6 cells per ml and subsequently, the cells were incubated for 10 minutes at 27° C. The reaction was terminated by the addition of 0.1M of HCl, and cGMP was extracted on ice for 20 minutes. Cells were then sonicated to ensure complete lysis. The obtained cell extract was then centrifuged and used for cGMP determination by an ELISA. […] In the absence of any of the NO donor, the sGCs or the combination of these compounds, no cGMP synthesis is detected. It is now for the first time shown by the inventors that apo-sGC is still activatable even in the absence of an sGC activator known in the art. The presence of the sGCs facilitates NO binding to a secondary, heme-independent NO binding-site, and in addition, presence of an NO donor acts synergistically, when cGMP production is considered. Due to the invention, it is now made possible to treat patients with an sGCs, resulting in cGMP formation, under conditions wherein treatment with sGC activators has no effect at all or a too small effect, e.g. under conditions of ischemia, neonatal asphyxia, stroke, hypoxia, acute respiratory distress syndrome, asthma, oxidative (organ and/or tissue and/or cell) damage, etc. The invention provides a new treatment modality for these patients, which are often not sensitive (enough) for sGCa treatment. […] C.

[2] = test system: Human Brain Microvascular Endothelial Cells (HBMECs); assay: Cell viability (MTT) of HBMEC subjected to hypoxia; type: cell-based; conditions: 1 μM; 6 h hypoxia, 24 h reperfusion; versus non-treated cells (FIG. 9)
Procedure: HBMEC (Cell systems, USA) between passage 3 and 9 were cultured to approximately 95% confluence using specialized cell medium (EGM-2 MV BulletKit, Lonza, The Netherlands) enriched with 5% fetal bovine serum before starting the hypoxia period. For hypoxia studies, HBMECs were seeded at specific density (6×10^4 cells/ml) in 12 wells-plate and incubated during 24 h at 37° C. Then, cell medium was replaced with non-FBS containing medium following by 6 h of hypoxia (94.8% N2, 0.2% O2 and 5% CO2) at 37° C. using hypoxia workstations (Ruskin Invivo2 400 station, The Netherlands). The hypoxia period was followed by 24 h of reperfusion in the presence or absence of 1 μM BAY 41-2272. Control cells were exposed to normoxia (75% N2, 20% O2 and 5% CO2) and enriched medium during the hypoxia period.
After 24 h of re-oxygenation period, cell viability was assessed using the colorimetric MTT assay. MTT solution (5 mg/ml) was added to each well (100 μl/ml) and incubated for 2 h at 37° C. The formazan salt formed was solubilized by adding 350 μl/well DMSO. The optical density was measured spectrophotometrically at 540 nm using a micro plate reader. Absorbance values obtained in control cells were set to 100% viability.

- cGMP formation, sGC stimulator combined with NO donor ([1]; listed as Bay 41-2272): synergistic increase in cGMP formation
- cGMP formation, sGC stimulator only ([1]; listed as Bay 41-2272): increase in cGMP formation
SMILES: Nc1nc(-c2nn(Cc3ccccc3F)c3ncccc23)ncc1C1CC1 [BAY 41-2272, 5-cyclopropyl-2-[1-(2-fluoro-benzyl)-1H-pyrazolo[3,4-b]pyridin-3-yl]-pyrimidin-4-ylamine]
- cGMP formation, sGC stimulator combined with NO donor ([1]; listed as Bay41-2272): more than double amount of cGMP; also recorded: synergistic increase in cGMP formation
- cGMP formation, sGC stimulator only ([1]; listed as Bay41-2272): resulted in cGMP production; also recorded: increase in cGMP formation
- cell viability [2]: significantly increased cell viability
